Non-standard residues stand in square brackets, D forms with d. Residues, ends and D or L forms follow the SMILES beside them. Nle = CCCC[C@H](N)C(=O)O
What was measured:
Assay type in all cases: cell-based, mouse
[1] = system: NIH3T3 cells overexpressing HNF1; test: MTT cell viability, HNF1 overexpressing cells vs parental line; details: HNF1 high-expressing cells / parental cell line, 3 to 4 days
Procedure, shortened: (§1)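 NIH3T3 high expressers vs parental; 2-fold serial dilution of drugs (DMSO stocks), 9 points; 10% CS-DMEM; 3–4 d culture; MTT 4 h 37 °C, stop with 0.04N HCl/isopropanol; A574/655. Readout is log(IC40 ratio).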

[2] = system: NIH3T3 cells overexpressing p38-DN; test: MTT cell viability, p38-DN overexpressing cells vs parental line; details: p38-DN high-expressing cells / parental cell line, 3 to 4 days
Procedure, shortened: as §1

[3] = system: NIH3T3 cells overexpressing m-calpain; test: MTT cell viability, m-calpain overexpressing cells vs parental line; details: m-calpain high-expressing cells / parental cell line, 3 to 4 days
Procedure, shortened: as §1

[4] = system: NIH3T3 cells overexpressing PDGF-R-Del; test: MTT cell viability, PDGF-R-Del overexpressing cells vs parental line; details: PDGF-R-Del high-expressing cells / parental cell line, 3 to 4 days
Procedure, shortened: (§2)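 Stable NIH3T3 transfectants (cDNA in pRc-CMV-type vector, G-418-selected, high expressers picked by Western blot) and parental cells were seeded at 1×10^5 cells/ml into twofold serial drug dilutions and grown 3–4 days. MTT formazan was read at 574/655 nm, and log ratios of IC40 values were derived.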

[5] = system: NIH3T3 cells overexpressing C/EBPb; test: MTT cell viability, C/EBPb overexpressing cells vs parental line; details: C/EBPb high-expressing cells / parental cell line, 3 to 4 days
Procedure, shortened: as §1

[6] = system: NIH3T3 cells overexpressing JNK-DN; test: MTT cell viability, JNK-DN overexpressing cells vs parental line; details: JNK-DN high-expressing cells / parental cell line, 3 to 4 days
Procedure, shortened: as §2

[7] = system: NIH3T3 cells overexpressing C/EBPa; test: MTT cell viability, C/EBPa overexpressing cells vs parental line; details: C/EBPa high-expressing cells / parental cell line, 3 to 4 days
Procedure, shortened: as §1

[8] = system: NIH3T3 cells overexpressing TK; test: MTT cell viability, TK overexpressing cells vs parental line; details: TK high-expressing cells / parental cell line, 3 to 4 days
Procedure, shortened: as §2

[9] = system: NIH3T3 cells overexpressing Ha-ras; test: MTT cell viability, drug sensitivity of Ha-ras overexpressing cells vs parental line; details: Ha-ras high-expressing cells / parental cell line, 3 to 4 days
Procedure, shortened: as §1

[10] = system: NIH3T3 cells overexpressing DAN; test: MTT cell viability, DAN overexpressing cells vs parental line; details: DAN high-expressing cells / parental cell line, 3 to 4 days
Procedure, shortened: as §2

[11] = system: NIH3T3 cells overexpressing coup; test: MTT cell viability, coup overexpressing cells vs parental line; details: coup high-expressing cells / parental cell line, 3 to 4 days
Procedure, shortened: as §2

[12] = system: NIH3T3 cells overexpressing PDGF-R; test: MTT cell viability, PDGF-R overexpressing cells vs parental line; details: PDGF-R high-expressing cells / parental cell line, 3 to 4 days
Procedure, shortened: as §2

[13] = system: NIH3T3 cells overexpressing PKCepsilon-KN; test: MTT cell viability, PKCepsilon-KN overexpressing cells vs parental line; details: 3 to 4 days
Procedure, shortened: as §1

[14] = system: NIH3T3 cells overexpressing RhoA-DN; test: MTT cell viability, RhoA-DN overexpressing cells vs parental line; details: RhoA-DN high-expressing cells / parental cell line, 3 to 4 days
Procedure, shortened: as §1

[15] = system: NIH3T3 cells overexpressing cystatin alpha; test: MTT cell viability, cystatin alpha overexpressing cells vs parental line; details: cystatin alpha high-expressing cells / parental cell line, 3 to 4 days
Procedure, shortened: as §2

[16] = system: NIH3T3 cells overexpressing PKCalpha-KN; test: MTT cell viability, PKCalpha-KN overexpressing cells vs parental line; details: 3 to 4 days
Procedure, shortened: as §1

[17] = system: NIH3T3 cells overexpressing v-src; test: MTT cell viability, v-src overexpressing cells vs parental line; details: v-src high-expressing cells / parental cell line, 3 to 4 days
Procedure, shortened: as §2

[18] = system: NIH3T3 cells overexpressing CP-antisense; test: MTT cell viability, CP-antisense cells vs parental line; details: 3 to 4 days
Procedure, shortened: as §2

[19] = system: NIH3T3 cells overexpressing HSP4O; test: MTT cell viability, HSP4O overexpressing cells vs parental line; details: HSP4O high-expressing cells / parental cell line, 3 to 4 days
Procedure, shortened: as §2

[20] = PKCepsilon-KN (first of two lines) high-expressing cells / parental cell line
[21] = PKCepsilon-KN (second of two lines) high-expressing cells / parental cell line
[22] = PKCalpha-KN (first of two lines) high-expressing cells / parental cell line
[23] = PKCalpha-KN (second of two lines) high-expressing cells / parental cell line

Row | Molecule | logarithmic value of ratio of IC40 values [1] | logarithmic value of ratio of IC40 values [2] | logarithmic value of ratio of IC40 values [3] | logarithmic value of ratio of IC40 values [4] | logarithmic value of ratio of IC40 values [5] | logarithmic value of ratio of IC40 values [6] | logarithmic value of ratio of IC40 values [7] | logarithmic value of ratio of IC40 values [8] | logarithmic value of ratio of IC40 values [9] | logarithmic value of ratio of IC40 values [10] | logarithmic value of ratio of IC40 values [11] | logarithmic value of ratio of IC40 values [12] | logarithmic value of ratio of IC40 values [13, 20] | logarithmic value of ratio of IC40 values [13, 21] | logarithmic value of ratio of IC40 values [14] | logarithmic value of ratio of IC40 values [15] | logarithmic value of ratio of IC40 values [16, 22] | logarithmic value of ratio of IC40 values [16, 23] | logarithmic value of ratio of IC40 values [17] | logarithmic value of ratio of IC40 values [18] | further results
1 | ICE inhibitor-III [ICEin-3] | 0.20 | −0.11 | −0.06 | 0.00 | 0.35 | 0.00 | −0.46 | −0.15 | 0.32 | 0.00 | −0.11 | 0.20 | −0.21 | 0.33 | 0.00 | 0.32 | 0.12 | 0.33 | −0.14 | −0.19 | logarithmic value of ratio of IC40 values [19]: 0.11
2 | C[C@@H]1C[C@@H]([C@H](O)CC2CC(=O)NC(=O)C2)C(=O)[C@@H](C)C1 [CHX, cycloheximide] | 0.38 | 0.04 | 0.22 | 0.39 | 0.37 | 0.00 | 0.00 | −0.13 | −0.19 | 0.72 | 0.12 | 0.51 | 0.06 | 0.20 | 0.22 | 0.34 | 0.30 | 0.29 | −0.32 | 0.00 | logarithmic value of ratio of IC40 values [19]: 0.00
3 | C=C[C@@]1(C)CC(=O)[C@]2(O)[C@@]3(C)[C@@H](O)CCC(C)(C)[C@@H]3[C@H](O)[C@H](OC(C)=O)[C@@]2(C)O1 [Forskolin, forskolin] | 1.15 | −0.46 | 0.25 | 0.51 | 0.93 | −0.22 | 0.00 | 0.56 | 0.26 | 0.88 | 0.78 | 0.16 | 0.00 | 0.00 | −0.36 | 0.72 | −0.47 | 0.00 | −0.46 | −0.05 | logarithmic value of ratio of IC40 values [19]: −0.39
4 | CCCC[C@@H](C=O)NC(=O)[C@H](CC(C)C)NC(=O)[C@H](CC(C)C)NC(C)=O [ALLN] (Ac-Leu-Leu-[Nle]-aldehyde) | 0.16 | 0.04 | 0.00 | 0.10 | 0.31 | −0.24 | 0.00 | 0.00 | 0.15 | 0.00 | 0.06 | 0.22 | 0.07 | 0.19 | 0.00 | 0.07 | 0.11 | −0.01 | 0.10 | 0.00 | logarithmic value of ratio of IC40 values [19]: 0.18
5 | COC(=O)[C@@]1(O)C[C@H]2O[C@]1(C)n1c3ccccc3c3c4c(c5c6ccccc6n2c5c31)C(=O)NC4 [K252a] | −0.207 | −0.15 | 0.13 | 0.10 | 0.25 | −0.28 | −0.48 | 0.23 | 0.65 | −0.46 | 0.00 | 0.10 | 0.00 | −0.09 | 0.28 | −0.10 | 0.16 | 0.02 | −0.22 | 0.00 | logarithmic value of ratio of IC40 values [19]: 0.07
